According to patent publication US7579359B2, “1-alkoxy 1H-imidazo ring systems and methods” (3M Innovative Properties Company, priority 2004, dated 2009):

| Structure (SMILES) | melting point |
| --- | --- |
| CCCc1nc2c(N)nc3ccccc3c2n1OC [Example 1, 1-Methoxy-2-propyl-1H-imidazo[4,5-c]quinolin-4-amine] | 210 to 211 °C |
| CCCc1nc2c(N)nc3ccccc3c2n1OCc1ccccc1 [Example 2, 1-Benzyloxy-2-propyl-1H-imidazo[4,5-c]quinolin-4-amine] | 164 to 166 °C |
| CCCc1nc2c(N)nc3ccccc3c2n1OCC [Example 3, 1-Ethoxy-2-propyl-1H-imidazo[4,5-c]quinolin-4-amine] | 198 to 199 °C |
| CCc1nc2c(N)nc3ccccc3c2n1OC [Example 4, 2-Ethyl-1-methoxy-1H-imidazo[4,5-c]quinolin-4-amine] | 216 to 217 °C |
| CCc1nc2c(N)nc3ccccc3c2n1OC(C)C [Example 5, 2-Ethyl-1-isopropoxy-1H-imidazo[4,5-c]quinolin-4-amine] | 242 to 243 °C |
| Cc1nc2c(N)nc3ccccc3c2n1OC(C)C [Example 6, 1-Isopropoxy-2-methyl-1H-imidazo[4,5-c]quinolin-4-amine] | 243 °C |
| COn1c(C)nc2c(N)nc3ccccc3c21 [Example 7, 1-Methoxy-2-methyl-1H-imidazo[4,5-c]quinolin-4-amine] | 237 to 238 °C |
| Cc1nc2c(N)nc3ccccc3c2n1OCC(C)C [Example 8, 1-Isobutoxy-2-methyl-1H-imidazo[4,5-c]quinolin-4-amine] | 215 to 216 °C |
| CCOn1c(C)nc2c(N)nc3ccccc3c21 [Example 9, 1-Ethoxy-2-methyl-1H-imidazo[4,5-c]quinolin-4-amine] | 219 to 221 °C |
| COn1c(-c2ccccc2)nc2c(N)nc3ccccc3c21 [Example 10, 1-Methoxy-2-phenyl-1H-imidazo[4,5-c]quinolin-4-amine] | 241 to 243 °C |
| CC(C)On1c(-c2ccccc2)nc2c(N)nc3ccccc3c21 [Example 11, 1-Isopropoxy-2-phenyl-1H-imidazo[4,5-c]quinolin-4-amine] | 188 to 191 °C |
| CC(C)On1c(C2CCCCC2)nc2c(N)nc3ccccc3c21 [Example 12, 2-Cyclohexyl-1-isopropoxy-1H-imidazo[4,5-c]quinolin-4-amine] | 175 to 178 °C |
| COn1c(C2CCCCC2)nc2c(N)nc3ccccc3c21 [Example 13, 2-Cyclohexyl-1-methoxy-1H-imidazo[4,5-c]quinolin-4-amine] | 220 to 222 °C |
| CC(C)On1c(C(C)(C)C)nc2c(N)nc3ccccc3c21 [Example 14, 2-Tert-butyl-1-isopropoxy-1H-imidazo[4,5-c]quinolin-4-amine] | 187 to 189 °C |
| COn1c(C(C)(C)C)nc2c(N)nc3ccccc3c21 [Example 15, 2-Tert-butyl-1-methoxy-1H-imidazo[4,5-c]quinolin-4-amine] | 195 to 197 °C |
| Nc1nc2ccccc2c2c1nc(-c1ccccc1)n2OCc1ccccc1 [Example 16, 1-(Benzyloxy)-2-phenyl-1H-imidazo[4,5-c]quinolin-4-amine] | 177 to 179 °C |
| CCOCc1nc2c(N)nc3ccccc3c2n1OC(C)C [Example 18, 2-(Ethoxymethyl)-1-isopropoxy-1H-imidazo[4,5-c]quinolin-4-amine] | 179 to 181 °C |
| CC(C)On1c(CO)nc2c(N)nc3ccccc3c21 [Example 19] | 204 to 206 °C |
| CCOn1cnc2c(N)nc3ccccc3c21 [Example 20, 1-Ethoxy-1H-imidazo[4,5-c]quinolin-4-amine] | 179 to 181 °C |
| COn1cnc2c(N)nc3ccccc3c21 [Example 22, 1-Methoxy-1H-imidazo[4,5-c]quinolin-4-amine] | 238 to 240 °C |
| CC(C)On1cnc2c(N)nc3ccccc3c21 [Example 23, 1-Isopropoxy-1H-imidazo[4,5-c]quinolin-4-amine] | 224 to 225 °C |
| CCCc1nc2c(N)nc3ccccc3c2n1O [Example 24, 4-Amino-2-propyl-1H-imidazo[4,5-c]quinolin-1-ol] | 232 to 235 °C |
| COn1c(C(C)C)nc2c(N)nc3ccccc3c21 [Example 25, 2-Isopropyl-1-methoxy-1H-imidazo[4,5-c]quinolin-4-amine] | 217 to 219 °C |
| CC(C)On1c(C(C)C)nc2c(N)nc3ccccc3c21 [Example 26, 1-Isopropoxy-2-isopropyl-1H-imidazo[4,5-c]quinolin-4-amine] | 177 to 179 °C |
| CCCCc1nc2c(N)nc3ccccc3c2n1OC [Example 27, 2-Butyl-1-methoxy-1H-imidazo[4,5-c]quinolin-4-amine] | 197 to 199 °C |
| CCCCc1nc2c(N)nc3ccccc3c2n1OC(C)C [Example 28, 2-Butyl-1-isopropoxy-1H-imidazo[4,5-c]quinolin-4-amine] | 118 to 119 °C |
| Cc1nc2c(N)nc3ccccc3c2n1OCc1ccccc1[N+](=O)[O-] [Example 29, 2-Methyl-1-[(2-nitrobenzyl)oxy]-1H-imidazo[4,5-c]quinolin-4-amine] | 215 to 217 °C |
| Cc1nc2c(N)nc3ccccc3c2n1OC(C)(C)C [Example 30, 1-tert-Butoxy-2-methyl-1H-imidazo[4,5-c]quinolin-4-amine] | 255 to 257 °C |
| Cc1nc2c(N)nc3ccccc3c2n1OCCOc1ccccc1 [Example 31, 2-Methyl-1-(2-phenoxyethoxy)-1H-imidazo[4,5-c]quinolin-4-amine] | 237 to 239 °C |
| CCCc1nc2c(N)nc3ccccc3c2n1OCC(N)=O [Example 33, 2-[(4-Amino-2-propyl-1H-imidazo[4,5-c]quinolin-1-yl)oxy]acetamide] | 192 to 194 °C |
